Converted amounts (≈) assume the structure as drawn. Where two headings read alike, the source gives them in different places.
Legend:
[1] = test system: bronchospasms elicited by 5-hydroxytryptamine; assay: Bronchodilator Activity (Konzett Assay) against 5-hydroxytryptamine; assay type: in vivo, guinea pigs; settings: Cavia porcellus; three logarithmic cumulative intravenous doses
Method: (§1) Bronchodilator activity was determined in guinea pigs against bronchospasms elicited by intravenous injections of 5-hydroxytryptamine, histamine or acetylcholine by the Konzett procedure. [See J. Lulling, P. Lievens, F. El Sayed and J. Prignot, Arzeneimittel-Forschung, 18, 995 (1968)]. In Table IIIC which follows bronchodilator activity for representative compounds of this invention against one or more of the three spasmogenic agents is expressed as an ED50 determined from the results obtained with three logarithmic cumulative intravenous doses.

[2] = test system: bronchospasms elicited by acetylcholine; assay: Bronchodilator Activity (Konzett Assay) against acetylcholine; assay type: in vivo, guinea pigs; settings: Cavia porcellus; three logarithmic cumulative intravenous doses
Method: as §1

gastric acid secretion [3] = assay: Inhibition of basal Gastric Acid Secretion (Acute Gastric Fistula Rat); assay type: in vivo, Female Sprague-Dawley rats; settings: 10 mg./kg. intraduodenal
Method: Inhibition of basal gastric acid secretion was determined in the acute gastric fistula rat as follows. Female Sprague-Dawley rats (Charles River Laboratories) weighing 140-160 grams are fasted in individual cages for 18-24 hours. The rats are then lightly anesthetized with ether and their front teeth extracted to avoid destruction of the plastic cannula. A midline incision is then made and the stomach and duodenum exposed. A flanged polyvinyl tube is inserted into the fundic portion of the stomach and secured with a purse string suture line using 4-0 Mersilene. The rat is then dosed by injection of the compound into the duodenum (1.0 ml. per 100 gram body weight). After dosing, the abdominal wall and skin are closed using metal wound clips. The rat is replaced in a cage containing a longitudinal slit to allow the polyvinyl tube to hang freely. An 8 ml. plastic collecting tube is attached to the flanged cannula and hangs freely below the cage. The first 30 minute sample is discarded designating this time as zero. The collecting tube is attached again and samples removed at the end of 60 and 120 minutes. Those samples are referred to as "A" and "B" in the table. The hourly samples are then transferred to a 15 ml. centrifuge tube and centrifuged for 5-10 minutes. Total and sediment volume are then recorded with the supernatant volume being used as volume of secretion. A 1 ml. or less aliquot is then removed and placed in a 50 ml. beaker containing 10 ml. of distilled water. This sample is then titrated using 0.01N NaOH to pH 7.0 using a Beckman zeromatic pH meter. Volume, titratable acidity (meq/L) and total acid output (μ eq/hour) are recorded. Percent inhibition is determined by comparison with the appropriate control. Groups of three rats were used. All compounds are administered in vehicle (0.5% methocel, 0.4% Tween 80, saline) at a constant volume of 1 ml./100 gram rat. Samples were sonicated with care to prevent overheating.

[4] = test system: bronchospasms elicited by histamine; assay: Bronchodilator Activity (Konzett Assay) against histamine; assay type: in vivo, guinea pigs; settings: Cavia porcellus; three logarithmic cumulative intravenous doses
Method: as §1

[5] = test system: dl-PGE1-induced contraction of gerbil colon; assay: Inhibition of dl-PGE1-Induced Contraction of Gerbil Colon (prostaglandin antagonist action); assay type: cell-based, gerbils (Meriones unguiculatus); settings: Meriones unguiculatus, 1 min; sub-maximal challenge, 20 ng./ml. dl-PGE1; 50% inhibition of maximum response; read-out: ID50 vs. 20 ng. of PGE1/ml.
Method in brief: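 Ascending colon from male gerbils, held in De Jalon's solution at 37 °C under 95% O2/5% CO2 with 0.5 g resting tension, contraction recorded isometrically. 1 min compound exposure, then 1 min dl-PGE1 at 200 ng/ml (maximal) or 20 ng/ml (sub-maximal). Approximate ID50 taken from a concentration series against the preceding agonist-only cycle.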

[6] = test system: Mycobacterium smegmatis ATCC 606; assay: agar-dilution streak-plate antimicrobial assay; assay type: cell-based; settings: Mycolicibacterium smegmatis, ATCC606, read-out: Minimal inhibitory conc. (6)
Method in brief: (§2)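 Test solutions at 2.5 mg/ml serially diluted two-fold, then 1 ml mixed into 9 ml nutrient agar suited to bacteria or fungi. Plates streaked with overnight broth cultures or saline spore suspensions, then incubated. MIC (μg/ml) is the concentration giving complete growth inhibition by visual inspection.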

[7] = test system: Trichophyton mentagrophytes E 11; assay: agar-dilution streak-plate antimicrobial assay; assay type: cell-based; settings: E11, read-out: Minimal inhibitory conc. (4)
Method in brief: as §2

gastric acid secretion [8] = assay: Inhibition of Gastric Acid Secretion (Pylorous-Ligated Rat), Shay rat procedure; assay type: in vivo, rats (male, CFE strain); settings: read-out: % Inhibition of Control Gastric Acid Secretion; for inhibition in vivo at 50 mg/kg: 50 mg./kg. intraduodenal
Method in brief: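 Male CFE rats were fasted 48 h, then pylorus-ligated under ether. Gastric contents were titrated with 0.02N or 0.04N NaOH to pH 8.4 for acid output, and ≥20% inhibition counted as active.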

diastolic blood pressure = assay: Prostaglandin-like hypotensive activity in anesthetized rats (minimal dose for about 10 mm. decrease in diastolic blood pressure); assay type: in vivo, Male Wistar strain rats; settings: Rattus norvegicus; intravenous; decrease of about 10 mm. in diastolic blood pressure
Method in brief: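 Male Wistar rats (~250 g), pentobarbital 30 mg./kg. i.v. and hexamethonium 2 mg./kg. i.v., iliac artery cannulated for blood pressure. Compounds in saline-Tween 80 given i.v. at 0.1–10.0 mg./kg.; value is the minimal dose giving ~10 mm. drop in diastolic pressure.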

[9] = test system: Streptococcus pyogenes C 203; assay: agar-dilution streak-plate antimicrobial assay; assay type: cell-based; settings: C203, read-out: Minimal inhibitory conc. (8)
Method in brief: as §2

[10] = test system: Trichophyton tonsurans NIH 662; assay: agar-dilution streak-plate antimicrobial assay; assay type: cell-based; settings: NIH662, read-out: Minimal inhibitory conc. (3)
Method in brief: as §2

[11] = test system: Microsporum gypseum ATCC 14683; assay: agar-dilution streak-plate antimicrobial assay; assay type: cell-based; settings: Nannizzia gypsea, ATCC14683, read-out: Minimal inhibitory conc. (2)
Method in brief: as §2

[12] = 2 h, B: 120 minute collection, read-out: % Inhibition Total Acid Output
[13] = 2 h, B: 120 minute collection, read-out: % Inhibition Total Acidity
[14] = 1 h, A: 60 minute collection, read-out: % Inhibition Total Acid Output
[15] = 1 h, A: 60 minute collection, read-out: % Inhibition Total Acidity

Row | SMILES | inhibition in vivo at 10 mg/kg (gastric acid secretion [3]; [12]) [%] | inhibition in vivo at 10 mg/kg (gastric acid secretion [3]; [13]) [%] | IC50 [5] [µg/mL] | MIC [6] [µg/mL] | MIC [7] [µg/mL] | minimal effective dose (diastolic blood pressure) [mg/kg] | MIC [10] [µg/mL] | other results
1 | CCCCCCC=CC1CCC(C)(O)C1CCCCCCC(=O)O (stereo not drawn) [9-Hydroxy-9-methyl-13-trans-prostenoic acid] | 31 | 16 | 2 to 5 (≈ 5.91 to 14.8 µM) | – | – | – | – | ED50 [1]: 0.756 mg/kg; ED50 [2]: 4.32 mg/kg; ED50 [4]: 1.18 mg/kg
2 | CCC/C=C/[C@H]1CCC(=O)[C@@H]1CCCCCCC(=O)OCC (relative stereo) [ethyl 9-oxo-18,19,20-trinor-13-trans-prostenoate] | – | – | – | 250 (≈ 810 µM) | 250 (≈ 810 µM) | – | – | inhibition in vivo at 100 mg/kg (gastric acid secretion [8]; 100 mg./kg. intraduodenal): 94%; inhibition in vivo at 100 mg/kg (gastric acid secretion [8]; 100 mg./kg., 1 hr. pre-ligation): 73%; inhibition in vivo at 8 mg/kg (gastric acid secretion [8]; sc, 8 mg./kg. subcutaneous): 40%
3 | CCCCCC/C=C/[C@H]1CCC(=NOC)[C@@H]1CCCCCCC(=O)OCC (relative stereo) [ethyl 9-oxo-13-trans-prostenoate 9-methoxime] | 66 | 45 | – | – | – | – | – | –
4 | CCCCCC/C=C/[C@H]1CCC(=O)[C@@H]1CC(=O)OCC (relative stereo) [ethyl 9-oxo-3,4,5,6,7-pentanor-13-trans-prostenoate] | – | – | – | 125 (≈ 446 µM) | 125 (≈ 446 µM) | 8 | 250 (≈ 892 µM) | MIC [9]: 125 µg/mL (≈ 446 µM)
5 | CCCCCC/C=C/[C@@H]1CCC(=O)[C@H]1CCCCOCC(=O)OCC (relative stereo) [ethyl 9-oxo-3-oxa-13-trans-prostenoate, ethyl 3-oxa-9-oxo-13-trans-prostenoate] | – | – | – | – | – | – | – | inhibition in vivo at 10 mg/kg (gastric acid secretion [3]; [14]): 40%; inhibition in vivo at 10 mg/kg (gastric acid secretion [3]; [15]): 37%; inhibition in vivo at 50 mg/kg (gastric acid secretion [8]): 48%; inhibition in vivo at 100 mg/kg (gastric acid secretion [8]; 100 mg./kg. intraduodenal): 89%; inhibition in vivo at 109 mg/kg (gastric acid secretion [8]; 109 mg./kg., 1 hr. pre-ligation): 59%
6 | CCCCCC/C=C/[C@@H]1CCC(=O)[C@H]1CCCCC(C)(C)CC(=O)OCC (relative stereo) [ethyl 9-oxo-3,3-dimethyl-13-trans-prostenoate] | 59 | 18 | – | – | – | – | – | –
7 | CCCCCC/C=C/[C@H]1CCC(O)[C@@H]1CCCCC(=O)OCC (stereo partly drawn) [ethyl 9-hydroxy-6,7-dinor-13-trans-prostenoate] | – | – | – | 6 (≈ 18.5 µM) | – | – | – | MIC [9]: 13 µg/mL (≈ 40.1 µM)
8 | CCSCCC/C=C/[C@@H]1CCC(=O)[C@H]1CCCCCCC(=O)O (relative stereo) [9-oxo-18-thia-13-trans-prostenoic acid] | – | – | 1 (≈ 2.94 µM) | 250 (≈ 734 µM) | 125 (≈ 367 µM) | 0.2 | 125 (≈ 367 µM) | ED50 [1]: 1.99 mg/kg; ED50 [2]: > 10 mg/kg; MIC [11]: 250 µg/mL (≈ 734 µM); ED50 [4]: 1.38 mg/kg
9 | CCCCCC/C=C/[C@@H]1CCC(=O)[C@H]1CCCCCCC(=O)OCCCC (relative stereo) [n-butyl 9-oxo-13-trans-prostenoate] | – | – | – | 250 (≈ 660 µM) | – | 2 | – | MIC [9]: 250 µg/mL (≈ 660 µM); inhibition in vivo at 50 mg/kg (gastric acid secretion [8]): 20%
10 | O=C(O)CCCCCC[C@H]1C(=O)CC[C@@H]1/C=C/CCCCCCS (relative stereo) [20-mercapto-9-oxo-13-trans-prostenoic acid] | – | – | – | 125 (≈ 353 µM) | 250 (≈ 705 µM) | – | 250 (≈ 705 µM) | MIC [9]: 6 µg/mL (≈ 16.9 µM); MIC [11]: 125 µg/mL (≈ 353 µM)
11 | CCOC(=O)CCCCCC[C@H]1C(=O)CC[C@@H]1/C=C/CCCCl (relative stereo) [ethyl 20-chloro-9-oxo-17,18,19-trinor-13-trans-prostenoate] | – | – | – | 250 (≈ 729 µM) | 250 (≈ 729 µM) | 0.2 to 1 | – | inhibition in vivo at 100 mg/kg (gastric acid secretion [8]; 100 mg./kg. intraduodenal): 61%
12 | CCCCCCCCCC/C=C/[C@H]1CCC(=O)[C@@H]1CCCCCCC(=O)O (relative stereo) [20-butyl-9-oxo-13-trans-prostenoic acid] | – | – | – | 10 (≈ 26.4 µM) | – | – | 250 (≈ 660 µM) | ED50 [1]: > 10 mg/kg; ED50 [2]: > 10 mg/kg; MIC [9]: 10 µg/mL (≈ 26.4 µM); ED50 [4]: 2.4 mg/kg
13 | CCOCCC/C=C/[C@@H]1CCC(=O)[C@H]1CCCCCCC(=O)O (relative stereo) [18-oxa-9-oxo-13-trans-prostenoic acid] | 56 | 43 | 15 to 25 (≈ 46.2 to 77.1 µM) | – | 250 (≈ 771 µM) | 2 | 250 (≈ 771 µM) | ED50 [1]: 1.92 mg/kg; ED50 [2]: > 10 mg/kg; ED50 [4]: 1.5 mg/kg
14 | CCCCCCC=CC1CCC(=O)C1CCCCCC(C(=O)O)c1ccccc1 (stereo not drawn) [9-oxo-2-phenyl-13-trans-prostenoic acid] | 44 | 26 | 5 to 7 (≈ 12.5 to 17.6 µM) | – | – | – | – | –
15 | CCOC(=O)CCCCCC[C@H]1C(=O)CC[C@@H]1/C=C/CCCI (relative stereo) [ethyl 20-iodo-9-oxo-17,18,19-trinor-13-trans-prostenoate] | – | – | – | 62 (≈ 143 µM) | 250 (≈ 576 µM) | – | 250 (≈ 576 µM) | –
16 | O=C(O)CCCC/C=C/[C@@H]1CCC(=O)[C@H]1CCCCCCC(=O)O (relative stereo) [20-carboxy-9-oxo-18,19-dinor-13-trans-prostenoic acid] | 25 | 30 | 35 (≈ 103 µM) | – | – | 8 | – | –
17 | CCCCCC/C=C/[C@H]1CCC(=O)[C@@H]1CCCCCC(CC)C(=O)OCC (stereo partly drawn) [ethyl 9-oxo-2-ethyl-13-trans-prostenoate, ethyl 2-ethyl-9-oxo-13-trans-prostenoate] | 48 | 49 | 10 to 25 (≈ 26.4 to 66 µM) | – | – | – | – | inhibition in vivo at 10 mg/kg (gastric acid secretion [3]; [14]): 56%; inhibition in vivo at 10 mg/kg (gastric acid secretion [3]; [15]): 66%; inhibition in vivo at 100 mg/kg (gastric acid secretion [8]; 100 mg./kg. intraduodenal): 42%
